Activity calls are given as the source filed them. The calls are words filed in the database; no cut-off is given here.
Assays:
[1] = molecular target: Human immunodeficiency virus type 1 reverse transcriptase (Human immunodeficiency virus 1) (UniProt Q72547); test: Inhibition of HIV1 reverse transcriptase
[2] = Inhibition of protein tyrosine kinase

Activity [1]	Activity [2]	SMILES
inactive	inactive	C=C1[C@@H]2CC[C@]13[C@H](C)C(=O)[C@@H](O)[C@@H](C)[C@]3(C)C2 (relative stereo)
inactive	inactive	CC1=CC[C@@]2(C)C(=C(C)C(=O)[C@H](O)[C@@H]2C)CC1
inactive	inactive	CC1=CC[C@@]2(C)C(=C(C)C(=O)[C@H](O)[C@@H]2C)[C@H](O)C1 (relative stereo)
